Patent US20260315434A1, “USE OF GUAIACOL SESQUITERPENE LACTONE DERIVATIVES” (NANJING UNIVERSITY OF CHINESE MEDICINE, priority 2023, published 2026)

Tested on: T cells / MDSCs
Assay: Promotion of T cell proliferation in a co-culture model of MDSCs and T cells
Format: cell-based, mouse
Conditions: for activation at 1 µM: Mus musculus, T-cell, 12 h, read-out: T-cell proliferation rate (%), 1 μM, MDSCs treated 12 hours, co-culture of MDSCs and T cells, compared to the control group
Method: Under sterile conditions, the tibia was removed, both ends of the bone were cut, and bone marrow was repeatedly flushed into a 15 mL centrifuge tube using a 1 mL syringe filled with culture medium. Centrifuge at 1600 rpm for 5 min to collect bone marrow cells. […] The spleen cell suspension was then transferred into a 15 mL centrifuge tube. Centrifuge at 1600 rpm for 5 min to collect T cells. Wash twice with 1×PBS. Resuspend the centrifuged T cells in 1 mL PBS and add 1 mL of 10 μM CFDA-SE solution. Incubate at room temperature for 8 min. […] After drug administration, collect MDSC cells into centrifuge tubes. Centrifuge at 1600 rpm for 5 min, remove supernatant, resuspend in 1 mL fresh medium, and plate. Add 1 mL stimulated activated T cells (1:1 ratio) for 48 h co-culture. After incubation, collect cells into centrifuge tubes, wash twice with PBS, and incubate with Fc antibody at room temperature in the dark for 10 min. Add CD3-labeled flow cytometry antibody and incubate at 4° C. in the dark for 30 min. After incubation, wash cells with PBS, resuspend in 300 μL PBS, and analyze by flow cytometry.

SMILES	activation at 1 µM [%]	T-cell proliferation rate (%) (1 μM, MDSCs treated 12 hours, co-culture of MDSCs and T cells, compared to the control group)
C=C1C(=O)O[C@H]2[C@H]1CCC(C)=C1CC[C@@](C)(OC(=O)N3CCC(C)CC3)[C@@H]12 [Compound 84]	20 to 40	
C=C1C(=O)O[C@H]2[C@H]1CCC(C)=C1CC[C@@](C)(OC(=O)N3CCN(C)CC3)[C@@H]12 [Compound 85]	0 to 20	
C=C1C(=O)O[C@H]2[C@H]1CCC(C)=C1CC[C@@](C)(OC(=O)N3CCN(CC)CC3)[C@@H]12 [Compound 86]	20 to 40	
C=C1C(=O)O[C@H]2[C@H]1CCC(C)=C1CC[C@@](C)(OC(=O)N3CCOCC3)[C@@H]12 [Compound 87]	> 40	
C=C1C(=O)O[C@H]2[C@H]1CCC(C)=C1CC[C@@](C)(OC(=O)NCC(C)C)[C@@H]12 [Compound 88]	20 to 40	
C=C1C(=O)O[C@H]2[C@H]1CCC(C)=C1CC[C@@](C)(OC(=O)NCC(F)F)[C@@H]12 [Compound 89]	20 to 40	
C=C1C(=O)O[C@H]2[C@H]1CCC(C)=C1CC[C@@](C)(OC(=O)N(C)CCC)[C@@H]12 [Compound 90]	20 to 40	
C=C1C(=O)O[C@H]2[C@H]1CCC(C)=C1CC[C@@](C)(OC(=O)N(CC)CCC)[C@@H]12 [Compound 91]	20 to 40	
C=C1C(=O)O[C@H]2[C@H]1CCC(C)=C1CC[C@@](C)(OC(=O)NCCCN3CCOCC3)[C@@H]12 [Compound 92]	20 to 40	
C=C1C(=O)O[C@H]2[C@H]1CCC(C)=C1CC[C@@](C)(OC(=O)NCCCN3CCN(C)CC3)[C@@H]12 [Compound 93]	20 to 40	
C=C1C(=O)O[C@H]2[C@H]1CCC(C)=C1CC[C@@](C)(OC(=O)N3CCC(N4CCOCC4)CC3)[C@@H]12 [Compound 94]	20 to 40	
C=C1C(=O)O[C@H]2[C@H]1CCC(C)=C1CC[C@@](C)(OC(=O)NCCN3CCN(C)CC3)[C@@H]12 [Compound 95]	20 to 40	
CC1=C2CC[C@@](C)(OC(=O)N3CCCCC3)[C@@H]2[C@H]2OC(=O)[C@@H](CN3CCCC3)[C@@H]2CC1 [Compound 96]	0 to 20	
CC1=C2CC[C@@](C)(OC(=O)N3CCCCC3)[C@@H]2[C@H]2OC(=O)[C@@H](CN(C)C)[C@@H]2CC1 [Compound 97]	0 to 20	
CC1=C2CC[C@@](C)(OC(=O)N3CCCC3)[C@@H]2[C@H]2OC(=O)C(CN3CCCC3)[C@@H]2CC1 (stereo partly drawn) [compound 104]		+ (T-cell proliferation rate within the 0-20% range compared to the control group)
